Measured values from patent US20230312587A1, “PTERIDINONE COMPOUNDS AND USES THEREOF” (Vertex Pharmaceutical Incorporated, priority 2018, published 2023).
Read-outs that look alike come from different tables or passages of the source.

Key:
[1] = system: HepG2 cells, non-targeting control shRNA; test: Cell viability, HepG2 control shRNA; format: cell-based
Protocol: (§1) Colo-205 (ATCC, catalog #CCL-222), HepG2 (ATCC, catalog #HB-8065), CFPAC1 (ATCC, catalog #CRL-1918), or DU4475 (ATCC, catalog #HTB-123) cells are plated in 10 mL of complete DMEM cell culture media [DMEM (Life Technologies, product #11960-051) media supplemented with 10% FBS (Hyclone, catalog #SH30071.03), antimycotic/antibiotic (Life Technologies, product #15240-062), and Glutamax (Life Technologies, product #35050-061)] at 3×10^6 cells per 10 cm cell culture plate (Corning, product #430167). Cells are allowed to attach and grow overnight at 37° C. in humidified 5% CO2. Cells are transduced by addition of 1×10^6 infectious units of lentivirus encoding WFS1 shRNA (Santa Cruz Biotech, catalog #sc-61804-V) or a non-targeting control shRNA (Santa Cruz Biotech, catalog #sc-108080) and 10 ug/ml of Polybrene® (Santa Cruz Biotech, catalog #sc-134220) to the cell culture media. After 48 hours transduced cells are selected by the addition of 1 microgram/mL of puromycin (Life Technologies, catalog #A1113803) to the cell culture media.

[2] = system: tumor xenografts derived from multiple cancer types; test: In vivo efficacy of Compound 136 in various tumor xenografts; design: species or system SCID or nude mice; key to tumor response (regression class): CR: complete regression (majority response on treatment is that tumors become undetectable); PR: partial regression (majority response on treatment is that tumors shrink by at least 330%)
Protocol: Female immune deficient mice (Charles River, 4-6 wks age) were anesthetized with Ketamine-Xylazine (140 mg/kg-14 mg/kg ip) and shaved. Puralube eye ointment was applied to the eyes to prevent desiccation of the corneas. Betadine and 70% ethanol was applied to the shaved location to sterilize the skin at the location of the incision. The animals were placed in a biosafety cabinet for the duration of the surgery. Using scissors, an 8 to 10 mm incision was made in the lateral flank of the skin. A tumor fragment weighing between 50 and 150 mg was placed under the skin at the incision site using forceps, and staples were used to close the incision. The staples were removed 5 to 7 days after surgery. Starting approximately two weeks after implantation, animals were weighed, and tumors were measured using caliper twice weekly. Tumor volume was calculated using the formula: volume=length×width^2×0.52.
Compound administration began when xenografts reached approximately 100-300 mm3 and continued until control xenografts reached […] of the animal's body weight. Test compounds were administered orally by gastric gavage. Percent tumor growth inhibition (TG) was calculated on the indicated treatment day. Percent TGI is defined as: [1−(del T/del C)]×100%, where del T is the final minus initial average volumes of the treated group, and del C is the final minus initial average volumes of the control group. […] The tested compounds were administered orally. Vehicle control consisted of either 0.5% methylcellulose/0.1% sodium lauryl sulfate or 20% captisol. Tumor volumes were determined by caliper measurement twice a week.
Tumors were engrafted in either SCID or nude mice. Compound 136 was administered orally once a day (QD) at 100 mg/kg. Vehicle control consisted of 0.5 methylcellulose/0.10% sodium lauryl sulfate. Tumor volumes were determined by caliper measurement twice a week. TG tumor growth inhibition at end of treatment. CR: complete regression (majority response on treatment is that tumors become undetectable), PR: partial regression (majority response on treatment is that tumors shrink by at least […]).

[3] = system: Colo-205 cells, non-targeting control shRNA; test: Cell viability, Colo-205 control shRNA; format: cell-based
Protocol: as §1

DU4475 Control shRNA = test: TCF reporter activity, DU4475 Control shRNA; format: cell-based
Protocol: as §1

[4] = system: Hek293 cells over-expressing WFS1; test: Calcium flux in Hek293 cells over-expressing WFS1 vs empty vector; format: cell-based; settings: induction of calcium flux
Excerpt: To determine the effect of WFS1 over-expression on compound mediated effects on calcium flux and cell viability, Hek293 cells were transduced with either an empty retroviral vector or a retroviral vector expressing full length WFS1 cDNA. Hek293 cells transduced with the WFS1 encoding retrovirus expressed greater than 100 times the amount of WFS1 protein than empty vector Hek293 cells (FIG. 3).

[5] = system: DU4475 cells, shRNA targeting WFS1; test: Cell viability, DU4475 WFS1 shRNA; format: cell-based
Protocol: as §1

Colo-205 Control shRNA = test: TCF reporter activity, Colo-205 Control shRNA; format: cell-based
Protocol: as §1

Colo-205 WFS1 shRNA = test: TCF reporter activity, Colo-205 WFS1 shRNA; format: cell-based
Protocol: as §1

DU4475 WFS1 shRNA = test: TCF reporter activity, DU4475 WFS1 shRNA; format: cell-based
Protocol: as §1

[6] = system: Colo-205 cells, shRNA targeting WFS1; test: Cell viability, Colo-205 WFS1 shRNA; format: cell-based; settings: for IC50: Colo-205 WFS1 shRNA; for increase in the IC50 in reducing cell viability on WFS1 knockdown: DU4475, Colo-205 and HepG2 cells, WFS1 shRNA vs control cells
Protocol: as §1

[7] = system: HepG2 cells, shRNA targeting WFS1; test: Cell viability, HepG2 WFS1 shRNA; format: cell-based
Protocol: as §1

[8] = system: DU4475 cells, non-targeting control shRNA; test: Cell viability, DU4475 control shRNA; format: cell-based
Protocol: as §1

[9] = Bladder BXF 1036, 100 mg/kg QD oral, 21 days
[10] = Kidney RXF 631, 100 mg/kg QD oral, 21 days
[11] = Melanoma MEXF 1765, 100 mg/kg QD oral, 21 days
[12] = Multiple myeloma NCI-H929, 100 mg/kg QD oral, 21 days
[13] = Multiple myeloma OPM2, 100 mg/kg QD oral, 21 days
[14] = Non-small cell lung LXFL 529, 100 mg/kg QD oral, 21 days
[15] = Non-small cell lung LXFL 625, 100 mg/kg QD oral, 21 days
[16] = Non-small cell lung LXFL 2207, 100 mg/kg QD oral, 21 days
[17] = Non-small cell lung OD26749, 100 mg/kg QD oral, 21 days
[18] = Non-small cell lung OD33966, 100 mg/kg QD oral, 21 days

**Q.** How did the IC50 [1] turn out when Cc1nc(NCc2cnn(Cc3ccc(C(F)(F)F)nc3)c2)nc2c1NC(=O)[C@H](C)N2C [Compound 136, (7S)-4,7,8-trimethyl-2-(((1-((6-(trifluoromethyl)pyridin-3-yl)methyl)-111-pyrazol-4-yl)methyl)amino)-7,8-dihydropteridin-6(5H)-one] was run?
**A.** Its IC50 is 0.26 µM.

**Q.** And the “% TGI” value [2, 9]?
**A.** Its value is > 100%.

**Q.** What about the “Body weight change at end of treatment” value [2, 9] of the same compound?
**A.** The value was “+5.5%”.

**Q.** And the “tumor response (regression class)” value [2, 9]?
**A.** Its value is “PR”.

**Q.** And the “% TGI” value ([2]; Breast DU4475, 100 mg/kg QD oral, 14 days)?
**A.** Its value is 99%.

**Q.** And the “% TGI” value [2, 10]?
**A.** The value was 89%.

**Q.** What about the “Body weight change at end of treatment” value [2, 10] of the same compound?
**A.** Its value is “+6.2%”.

**Q.** What about the “% TGI” value [2, 11] of the same compound?
**A.** Its value is > 100%.

**Q.** And the “Body weight change at end of treatment” value [2, 11]?
**A.** Its value is “+9.8%”.

**Q.** What about the “tumor response (regression class)” value [2, 11] of the same compound?
**A.** The value was “CR”.

**Q.** And the “% TGI” value [2, 12]?
**A.** Its value is > 100%.

**Q.** What about the “Body weight change at end of treatment” value [2, 12] of the same compound?
**A.** Its value is “+1.8%”.

**Q.** And the “tumor response (regression class)” value [2, 12]?
**A.** Its value is “CR”.

**Q.** And the “% TGI” value [2, 13]?
**A.** The value was > 100%.

**Q.** And the “Body weight change at end of treatment” value [2, 13]?
**A.** Its value is −0.9%.

**Q.** And the “tumor response (regression class)” value [2, 13]?
**A.** The value was “CR”.

**Q.** And the “% TGI” value [2, 14]?
**A.** The value was > 100%.

**Q.** And the “Body weight change at end of treatment” value [2, 14]?
**A.** The value was “+5.5%”.

**Q.** And the “tumor response (regression class)” value [2, 14]?
**A.** The value was “CR”.

**Q.** What about the “% TGI” value [2, 15] of the same compound?
**A.** The value was > 100%.

**Q.** What about the “Body weight change at end of treatment” value [2, 15] of the same compound?
**A.** The value was “+3.7%”.

**Q.** What about the “tumor response (regression class)” value [2, 15] of the same compound?
**A.** Its value is “CR”.

**Q.** And the “% TGI” value [2, 16]?
**A.** The value was > 100%.

**Q.** And the “Body weight change at end of treatment” value [2, 16]?
**A.** The value was “+1.5%”.

**Q.** What about the “tumor response (regression class)” value [2, 16] of the same compound?
**A.** Its value is “PR”.

**Q.** What about the “% TGI” value [2, 17] of the same compound?
**A.** Its value is > 100%.

**Q.** And the “Body weight change at end of treatment” value [2, 17]?
**A.** The value was −0.1%.

**Q.** And the “tumor response (regression class)” value [2, 17]?
**A.** Its value is “CR”.

**Q.** And the “% TGI” value [2, 18]?
**A.** The value was > 100%.

**Q.** And the “Body weight change at end of treatment” value [2, 18]?
**A.** The value was “+4.5%”.

**Q.** And the “tumor response (regression class)” value [2, 18]?
**A.** The value was “PR”.

**Q.** What about the “growth of tumor xenografts” value ([2]; orally once a day (QD) at 100 mg/kg, SCID or nude mice) of the same compound?
**A.** The value was “inhibits growth of tumor xenografts derived from multiple cancer types”.

**Q.** What about the IC50 [3] of the same compound?
**A.** Its IC50 is 0.05 µM.

**Q.** And the IC50 (DU4475 Control shRNA)?
**A.** The IC50 was 0.09 µM.

**Q.** And the “reduction in the EC50 on over-expression of WFS1” value [4]?
**A.** Its value is “approximately 10 fold”.

**Q.** What about the IC50 [5] of the same compound?
**A.** The IC50 was 6.1 µM.

**Q.** And the IC50 (Colo-205 Control shRNA)?
**A.** The IC50 was 0.1 µM.

**Q.** What about the IC50 (Colo-205 WFS1 shRNA) of the same compound?
**A.** Its IC50 is 0.7 µM.

**Q.** What about the IC50 (DU4475 WFS1 shRNA) of the same compound?
**A.** Its IC50 is 0.7 µM.

**Q.** And the IC50 [6]?
**A.** The IC50 was > 9 µM.

**Q.** What about the “increase in the IC50 in reducing cell viability on WFS1 knockdown” value [6] of the same compound?
**A.** The value was “greater than 50 fold”.

**Q.** What about the IC50 [7] of the same compound?
**A.** The IC50 was 2.2 µM.

**Q.** What about the IC50 [8] of the same compound?
**A.** The IC50 was 0.08 µM.

**Q.** Which results are given for Cc1nc(N[C@H]2C[C@H](Oc3cc(F)c(F)c(F)c3)C2)nc2c1N(C)C(=O)[C@H](C)N2C [Compound 253, (7S)-4,5,7,8-tetramethyl-2-((trans-3-(3,4,5-trifluorophenoxy)cyclobutyl)amino)-7,8-dihydropteridin-6(5H)-one]?
**A.** IC50 ([1]; Homo sapiens): 0.2 µM; IC50 ([3]; Homo sapiens): 0.14 µM; IC50 (DU4475 Control shRNA; Homo sapiens, DU-4475): 0.2 µM; IC50 ([5]; Homo sapiens, DU-4475): 7.8 µM; IC50 (Colo-205 Control shRNA; Homo sapiens): 0.2 µM; IC50 (Colo-205 WFS1 shRNA; Homo sapiens): 1.5 µM; IC50 (DU4475 WFS1 shRNA; Homo sapiens, DU-4475): 1 µM; increase in the IC50 in reducing cell viability on WFS1 knockdown [6]: greater than 50 fold; IC50 ([6]; Homo sapiens): > 9 µM; IC50 ([7]; Homo sapiens): 17 µM; IC50 ([8]; Homo sapiens, DU-4475): 0.1 µM
